“And” between values parts separate entries of the source, which are not always exact repeats. Equal values may be shown once.
Assays:
Assay type in all cases: biochemical
PI3K γ = molecular target: T1, PI3K γ (Homo sapiens, UniProt P48736); test: In vitro IC50, PI3K γ
T1 construct: purchased Sigma
Description: (§1) An exemplary system is PI 3-Kinase (human) HTRF™ Assay from Upstate.

PI3K β = PI3K β (Homo sapiens, UniProt P42338); test: In vitro IC50, PI3K β
Description: as §1

PI3K α = molecular target: T2, PI3K α (Homo sapiens, UniProt P42336); test: In vitro IC50, PI3K α
T2 construct: purchased Upstate
T2 sequence (P42336 whole entry): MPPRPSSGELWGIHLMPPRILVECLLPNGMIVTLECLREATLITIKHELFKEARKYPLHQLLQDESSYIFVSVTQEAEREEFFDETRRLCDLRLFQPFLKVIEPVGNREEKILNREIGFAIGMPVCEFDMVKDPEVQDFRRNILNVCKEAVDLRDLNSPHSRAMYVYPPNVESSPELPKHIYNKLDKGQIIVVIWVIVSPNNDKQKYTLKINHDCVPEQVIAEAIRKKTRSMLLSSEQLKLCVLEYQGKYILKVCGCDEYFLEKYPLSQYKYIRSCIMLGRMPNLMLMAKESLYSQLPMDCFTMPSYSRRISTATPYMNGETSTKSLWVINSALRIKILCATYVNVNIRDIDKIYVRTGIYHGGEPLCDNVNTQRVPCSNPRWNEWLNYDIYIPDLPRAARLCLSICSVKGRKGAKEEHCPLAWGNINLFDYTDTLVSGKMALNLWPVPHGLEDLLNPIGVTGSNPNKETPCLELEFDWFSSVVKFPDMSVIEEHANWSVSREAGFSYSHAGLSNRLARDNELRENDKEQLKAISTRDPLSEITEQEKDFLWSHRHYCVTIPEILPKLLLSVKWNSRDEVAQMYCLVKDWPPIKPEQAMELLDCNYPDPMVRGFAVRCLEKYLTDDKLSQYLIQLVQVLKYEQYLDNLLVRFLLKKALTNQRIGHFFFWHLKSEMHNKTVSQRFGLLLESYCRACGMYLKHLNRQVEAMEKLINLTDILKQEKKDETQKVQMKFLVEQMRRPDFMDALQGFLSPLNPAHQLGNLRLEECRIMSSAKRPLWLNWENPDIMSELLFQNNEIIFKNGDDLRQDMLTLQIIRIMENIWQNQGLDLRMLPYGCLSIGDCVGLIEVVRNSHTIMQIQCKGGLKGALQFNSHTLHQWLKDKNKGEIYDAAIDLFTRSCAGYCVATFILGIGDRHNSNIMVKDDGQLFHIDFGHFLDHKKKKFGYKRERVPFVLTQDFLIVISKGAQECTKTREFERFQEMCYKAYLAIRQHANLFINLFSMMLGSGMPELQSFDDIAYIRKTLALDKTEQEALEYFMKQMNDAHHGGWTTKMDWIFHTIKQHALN
T2 sequence (P27986 whole entry partner): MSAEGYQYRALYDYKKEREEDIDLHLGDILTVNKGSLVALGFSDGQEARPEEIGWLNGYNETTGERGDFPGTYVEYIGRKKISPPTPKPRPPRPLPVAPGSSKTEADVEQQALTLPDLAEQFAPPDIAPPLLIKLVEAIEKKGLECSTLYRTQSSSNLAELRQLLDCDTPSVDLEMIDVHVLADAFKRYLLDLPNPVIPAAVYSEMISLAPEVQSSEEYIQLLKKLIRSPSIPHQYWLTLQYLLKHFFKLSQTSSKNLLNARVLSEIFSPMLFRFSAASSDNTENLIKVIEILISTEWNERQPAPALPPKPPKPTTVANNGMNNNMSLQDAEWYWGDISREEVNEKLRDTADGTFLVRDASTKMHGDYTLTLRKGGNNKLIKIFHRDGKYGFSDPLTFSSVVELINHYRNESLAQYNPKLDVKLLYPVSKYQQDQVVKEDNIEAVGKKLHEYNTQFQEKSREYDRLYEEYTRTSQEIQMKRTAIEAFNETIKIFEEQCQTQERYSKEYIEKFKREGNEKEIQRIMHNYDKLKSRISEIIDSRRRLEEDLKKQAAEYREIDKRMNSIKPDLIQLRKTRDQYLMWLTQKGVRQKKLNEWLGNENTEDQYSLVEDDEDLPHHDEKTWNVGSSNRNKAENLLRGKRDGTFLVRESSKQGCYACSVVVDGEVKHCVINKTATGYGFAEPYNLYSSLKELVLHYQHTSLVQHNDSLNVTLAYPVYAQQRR
Description: as §1

PI3K δ = PI3K δ (Homo sapiens, UniProt O00329); test: In vitro IC50, PI3K δ; design: purchased Upstate
PI3K δ, sequence (O00329 whole entry): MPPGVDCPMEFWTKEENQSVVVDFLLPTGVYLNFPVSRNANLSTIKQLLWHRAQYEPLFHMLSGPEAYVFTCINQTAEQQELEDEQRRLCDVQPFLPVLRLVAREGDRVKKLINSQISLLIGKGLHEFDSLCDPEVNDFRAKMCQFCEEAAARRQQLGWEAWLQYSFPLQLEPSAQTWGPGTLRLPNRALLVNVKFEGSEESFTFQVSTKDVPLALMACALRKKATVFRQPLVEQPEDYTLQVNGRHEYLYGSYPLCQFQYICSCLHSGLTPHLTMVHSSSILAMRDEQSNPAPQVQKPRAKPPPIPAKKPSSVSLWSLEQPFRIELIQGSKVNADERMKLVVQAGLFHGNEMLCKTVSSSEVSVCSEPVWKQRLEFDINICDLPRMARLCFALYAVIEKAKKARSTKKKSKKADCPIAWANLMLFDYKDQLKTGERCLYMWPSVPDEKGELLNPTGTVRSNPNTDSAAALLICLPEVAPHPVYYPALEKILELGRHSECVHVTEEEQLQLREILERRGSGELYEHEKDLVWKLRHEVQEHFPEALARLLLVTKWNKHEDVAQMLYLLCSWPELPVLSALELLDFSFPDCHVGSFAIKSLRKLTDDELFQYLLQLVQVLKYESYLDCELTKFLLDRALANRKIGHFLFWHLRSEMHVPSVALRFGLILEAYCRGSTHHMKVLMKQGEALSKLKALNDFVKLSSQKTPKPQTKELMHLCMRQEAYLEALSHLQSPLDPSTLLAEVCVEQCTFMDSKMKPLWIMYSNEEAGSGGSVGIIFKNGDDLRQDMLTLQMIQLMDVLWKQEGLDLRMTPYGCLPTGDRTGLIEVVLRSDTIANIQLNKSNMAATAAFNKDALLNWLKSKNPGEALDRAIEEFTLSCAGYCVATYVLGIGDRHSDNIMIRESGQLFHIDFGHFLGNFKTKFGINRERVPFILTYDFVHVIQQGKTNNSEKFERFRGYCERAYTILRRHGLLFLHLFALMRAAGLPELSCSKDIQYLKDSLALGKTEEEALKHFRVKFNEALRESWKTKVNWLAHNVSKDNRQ
PI3K δ, sequence (P27986 whole entry partner): as the sequence (P27986 whole entry partner) above
Description: as §1

T1 sequence (P48736 whole entry): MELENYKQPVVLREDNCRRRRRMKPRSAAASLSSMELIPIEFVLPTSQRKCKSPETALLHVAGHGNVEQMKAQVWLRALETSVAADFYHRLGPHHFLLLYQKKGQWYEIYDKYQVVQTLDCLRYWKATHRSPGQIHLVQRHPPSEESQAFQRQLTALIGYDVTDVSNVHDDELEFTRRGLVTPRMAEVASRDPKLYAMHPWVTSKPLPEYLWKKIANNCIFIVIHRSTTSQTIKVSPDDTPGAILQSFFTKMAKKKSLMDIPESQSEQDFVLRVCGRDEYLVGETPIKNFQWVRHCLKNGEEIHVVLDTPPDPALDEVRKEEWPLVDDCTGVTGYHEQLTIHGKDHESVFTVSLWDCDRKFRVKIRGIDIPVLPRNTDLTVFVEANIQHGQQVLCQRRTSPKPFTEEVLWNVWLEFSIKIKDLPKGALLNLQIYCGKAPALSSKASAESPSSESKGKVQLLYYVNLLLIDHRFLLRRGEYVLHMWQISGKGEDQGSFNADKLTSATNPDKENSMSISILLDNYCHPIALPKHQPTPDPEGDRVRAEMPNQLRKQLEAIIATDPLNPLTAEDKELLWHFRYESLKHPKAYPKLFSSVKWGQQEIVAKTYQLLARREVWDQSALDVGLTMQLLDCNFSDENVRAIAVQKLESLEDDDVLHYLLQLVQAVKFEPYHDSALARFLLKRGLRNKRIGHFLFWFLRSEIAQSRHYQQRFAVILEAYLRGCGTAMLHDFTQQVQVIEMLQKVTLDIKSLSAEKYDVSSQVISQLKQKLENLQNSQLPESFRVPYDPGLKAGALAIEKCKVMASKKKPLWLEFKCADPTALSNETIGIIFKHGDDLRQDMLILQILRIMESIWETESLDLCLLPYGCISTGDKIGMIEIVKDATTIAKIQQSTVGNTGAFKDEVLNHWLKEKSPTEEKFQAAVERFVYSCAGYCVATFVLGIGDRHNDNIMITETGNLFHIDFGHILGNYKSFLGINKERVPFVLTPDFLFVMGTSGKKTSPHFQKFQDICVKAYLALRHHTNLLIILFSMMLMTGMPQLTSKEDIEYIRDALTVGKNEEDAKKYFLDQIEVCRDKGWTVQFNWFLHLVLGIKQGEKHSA
PI3K β, sequence (P42338 whole entry): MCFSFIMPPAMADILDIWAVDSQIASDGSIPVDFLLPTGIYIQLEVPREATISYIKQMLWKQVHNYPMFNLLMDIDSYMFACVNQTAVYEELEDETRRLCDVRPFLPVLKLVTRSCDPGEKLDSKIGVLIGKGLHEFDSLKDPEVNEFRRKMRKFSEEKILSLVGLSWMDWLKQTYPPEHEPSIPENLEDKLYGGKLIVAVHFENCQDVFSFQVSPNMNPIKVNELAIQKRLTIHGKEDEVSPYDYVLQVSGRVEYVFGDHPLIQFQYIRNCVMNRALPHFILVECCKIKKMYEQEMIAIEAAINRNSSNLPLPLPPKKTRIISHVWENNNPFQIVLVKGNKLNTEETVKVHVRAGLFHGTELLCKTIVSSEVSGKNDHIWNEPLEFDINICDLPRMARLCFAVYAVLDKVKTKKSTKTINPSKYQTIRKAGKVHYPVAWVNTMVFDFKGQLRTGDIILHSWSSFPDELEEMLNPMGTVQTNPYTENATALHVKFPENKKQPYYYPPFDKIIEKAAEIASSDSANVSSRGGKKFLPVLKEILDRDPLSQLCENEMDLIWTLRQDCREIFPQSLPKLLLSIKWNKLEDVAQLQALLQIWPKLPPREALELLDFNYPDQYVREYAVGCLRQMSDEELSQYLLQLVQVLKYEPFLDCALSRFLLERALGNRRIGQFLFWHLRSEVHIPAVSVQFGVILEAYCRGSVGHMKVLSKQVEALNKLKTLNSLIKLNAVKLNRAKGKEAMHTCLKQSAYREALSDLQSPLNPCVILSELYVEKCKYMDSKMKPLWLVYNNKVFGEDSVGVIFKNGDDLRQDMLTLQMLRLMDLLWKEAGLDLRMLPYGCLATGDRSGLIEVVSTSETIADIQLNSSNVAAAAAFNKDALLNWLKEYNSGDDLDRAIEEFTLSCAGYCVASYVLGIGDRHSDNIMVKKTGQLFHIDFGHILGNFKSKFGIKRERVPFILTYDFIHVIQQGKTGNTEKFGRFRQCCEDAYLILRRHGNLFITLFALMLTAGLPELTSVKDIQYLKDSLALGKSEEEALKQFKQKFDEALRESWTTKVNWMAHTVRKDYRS

SMILES	IC50 (PI3K γ)	IC50 (PI3K β) [µM]	IC50 (PI3K α) [µM]	IC50 (PI3K δ) [µM]
Cc1ccccc1-n1c(CN(C)c2ncnc3[nH]cnc23)cc2cccc(C)c2c1=O [Compound 184]	< 10 µM	> 10	> 10	
CCc1nn(Cc2cc3cccc(C)c3c(=O)n2-c2ccccc2C)c2ncnc(N)c12 [Compound 294]	< 10 µM	> 10	> 10	< 0.1
Cc1cccc2cc(Cn3nc(-c4ccc5oc(N)nc5c4)c4c(N)ncnc43)n(C3CCC3)c(=O)c12 [Compound 208]	< 0.1 µM	< 1	< 1	< 0.1
Cc1cccc2cc(Cn3nc(-c4cccc(O)c4)c4c(N)ncnc43)n(-c3ccccc3OCCN3CCOCC3)c(=O)c12 [Compound 109]	< 1 µM	> 10	> 10	< 0.1
Cc1cccnc1-n1c(Cn2nc(-c3ccc(Cl)c(O)c3)c3c(N)ncnc32)cc2cccc(C)c2c1=O [Compound 72]	< 0.1 µM	< 10	> 10	< 0.1
Cc1cccc2cc(Cn3nc(I)c4c(N)ncnc43)n(C)c(=O)c12 [Compound 107]	< 10 µM	> 10	> 10	< 1
Cc1cccc2cc([C@H](C)Nc3nc(Cl)ncc3Cl)n(-c3ccccc3)c(=O)c12 [Compound 248]	< 10 µM	> 10	> 10	< 1
Cc1cccc2cc(Cn3nc(/C=C4/SC(=O)NC4=O)c4c(N)ncnc43)n(-c3ccccc3F)c(=O)c12 [Compound 171]	< 0.1 µM	< 10	< 10	< 0.1
Cc1cccc2cc([C@H](C)Nc3ncnc4[nH]cc(C#N)c34)n(C3CC3)c(=O)c12 [Compound 289]	< 0.1 µM	< 0.1	< 1	< 0.1
Cc1cccc2cc([C@H](C)Nc3ncnc4[nH]nc(C#N)c34)n(-c3ccccc3)c(=O)c12 [Compound 255]	< 0.1 µM	< 0.1	< 10	< 0.1
Cc1cccc2cc([C@H](C)Nc3cc(N)nc(Cl)n3)n(C3CC3)c(=O)c12 [Compound 283]	> 10 µM	> 10	> 10	> 10
Cc1cccc2cc(Cn3nc(-c4cc(O)cc(F)c4)c4c(N)ncnc43)n(C3CCCCC3)c(=O)c12 [Compound 110]		< 10	> 10	< 0.1
Cc1ccccc1-n1c(Cn2nc(-c3ccc4oc(N)nc4c3)c3c(N)ncnc32)cc2cccc(C)c2c1=O [Compound 151]	< 0.1 µM	< 10	< 1	< 0.1
Cc1cccc2cc(Cn3nc(C#CCO)c4c(N)ncnc43)n(-c3ccccc3F)c(=O)c12 [Compound 8]	< 1 µM	> 10	> 10	< 0.1
Cc1cccc2cc(Cn3nc(C4=CCOCC4)c4c(N)ncnc43)n(-c3ccccc3)c(=O)c12 [Compound 315]	> 10 µM	> 10	> 10	> 10
Cc1cccc2cc(C(C)Nc3nc(O)ncc3N)n(-c3ccccc3)c(=O)c12 (stereo not drawn) [Compound 321]	> 10 µM	> 10	> 10	> 10
Cc1cccc2cc(Cn3nc(I)c4c(N)ncnc43)n(-c3ccccc3Cl)c(=O)c12 [Compound 76]	< 1 µM	> 10		< 0.1
CC(=O)Nc1nc2ccc(-c3nn(Cc4cc5cccc(Cl)c5c(=O)n4C(C)C)c4ncnc(N)c34)cc2s1 [Compound 157]		< 0.1	< 0.1	< 0.1
CC(=O)Nc1nc2ccc(-c3nn(Cc4cc5cccc(C)c5c(=O)n4C)c4ncnc(N)c34)cc2s1 [Compound 153]		< 1	< 0.1	< 0.1
CC(=O)Nc1nc2ccc(-c3nn(Cc4cc5cccc(Cl)c5c(=O)n4C4CC4)c4ncnc(N)c34)cc2s1 [Compound 156]		< 0.1	< 0.1	< 0.1
CC(=O)Nc1nc2ccc(-c3nn(Cc4cc5cccc(F)c5c(=O)n4C(C)C)c4ncnc(N)c34)cc2s1 [Compound 158]		< 10	< 0.1	< 0.1
Cc1ccncc1-n1c(Cn2nc(I)c3c(N)ncnc32)cc2cccc(C)c2c1=O [Compound 78]	< 1 µM	> 10		< 0.1
Cc1ccccc1-n1c(Cn2nc(-c3cnn(CCO)c3)c3c(N)ncnc32)cc2cccc(C)c2c1=O [Compound 163]	< 1 µM	> 10	> 10	
CCC(Nc1ncnc2[nH]cnc12)c1cc2cccc(C)c2c(=O)n1-c1c(F)cccc1F (stereo not drawn) [Compound 217]		> 10		< 10
Cc1cccc2cc(Cn3nc(-c4cc(O)cc(F)c4)c4c(N)ncnc43)n(C3CCC3)c(=O)c12 [Compound 115]		< 10	< 10	< 0.1
Cc1cccc2cc(Cn3nc(-c4cccc(Cl)c4)c4c(N)ncnc43)n(-c3ccccc3F)c(=O)c12 [Compound 38]	> 10 µM and < 10 µM	> 10		< 10

SMILES	IC50 (PI3K γ)	IC50 (PI3K β) [µM]	IC50 (PI3K α) [µM]	IC50 (PI3K δ) [µM]
Cc1ccccc1-n1c(Cn2nc(CC#N)c3c(N)ncnc32)cc2cccc(C)c2c1=O [Compound 312]	< 10 µM	> 10		< 0.1
Cc1ccccc1-n1c(Cn2nc(C#C[C@H](C)O)c3c(N)ncnc32)cc2cccc(C)c2c1=O [Compound 85]		< 10	> 10	< 1
Cc1ccccc1-n1c(Cn2nc(-c3cc(O)cc(F)c3)c3c(N)ncnc32)cc2cccc(C)c2c1=O [Compound 7]		< 1	< 10	
Cc1cccc2cc(Cn3nc(-c4cccc(O)c4)c4c(N)ncnc43)n(C3CCCCC3)c(=O)c12 [Compound 111]		< 10	> 10	< 0.1
CC(=O)Nc1nc2ccc(-c3nn(Cc4cc5cccc(C)c5c(=O)n4-c4cccc(F)c4)c4ncnc(N)c34)cc2s1 [Compound 178]	< 0.1 µM	< 10		< 0.1
Cc1cccc2cc(Cn3nc(CF)c4c(N)ncnc43)n(-c3ccccc3)c(=O)c12 [Compound 311]	< 0.1 µM	> 10		< 0.1
CCc1ccccc1-n1c(Cn2nc(I)c3c(N)ncnc32)cc2cccc(C)c2c1=O [Compound 77]	< 0.1 µM	< 10		< 0.1
CC(=O)Nc1nc2ccc(-c3nn(Cc4cc5cccc(C)c5c(=O)n4C(C)C)c4ncnc(N)c34)cc2s1 [Compound 154]		< 10	< 0.1	< 0.1
Cc1cccc2cc([C@H](C)Nc3ncnc4[nH]cnc34)n(C3CC3)c(=O)c12 [Compound 200]	< 0.1 µM	< 0.1		< 0.1
CC(=O)Nc1nc2ccc(-c3nn(Cc4cc5cccc(C)c5c(=O)n4C4CC4)c4ncnc(N)c34)cc2s1 [Compound 155]		< 0.1	< 0.1	< 0.1
Cc1ccccc1-n1c(Cn2nc(-c3cccc(O)c3)c3c(N)ncnc32)cc2cccc(C)c2c1=O [Compound 13]	< 0.1 µM	< 10	> 10	
Cc1ccccc1-n1c(Cn2nc(-c3cccc(O)c3)c3c(N)ncnc32)cc2ccccc2c1=O [Compound 51]	< 1 µM		> 10	< 0.1
Cc1cccc2cc(Cn3nc(C#C[C@@H](C)O)c4c(N)ncnc43)n(C3CCCCC3)c(=O)c12 [Compound 112]		> 10	> 10	< 0.1
Cc1cccc2cc(Cn3nc(C(C)(C)O)c4c(N)ncnc43)n(-c3ccccc3)c(=O)c12 [Compound 318]	> 10 µM		> 10	> 10
COc1ccc(-c2nn(Cc3cc4cccc(C)c4c(=O)n3-c3ccccc3C)c3ncnc(N)c23)cc1 [Compound 45]	< 0.1 µM		> 10	< 1
CC(=O)Nc1nc2ccc(-c3nn(Cc4cc5cccc(C)c5c(=O)n4-c4ccccc4C)c4ncnc(N)c34)cc2s1 [Compound 53]	< 0.1 µM	< 10	< 1	
Cc1cccnc1-n1c(Cn2nc(Cl)c3c(N)ncnc32)cc2cccc(C)c2c1=O [Compound 18]	> 10 µM		> 10	< 1
Cc1ccccc1-n1c(Cn2nc(CF)c3c(N)ncnc32)cc2cccc(C)c2c1=O [Compound 310]	< 0.1 µM	> 10		< 0.1
Cc1cccc2cc(Cn3nc(I)c4c(N)ncnc43)n(-c3ccccc3C(C)C)c(=O)c12 [Compound 75]	< 0.1 µM	< 10		< 0.1
Cc1ccccc1-n1c(Cn2nc(-c3cnc4[nH]ccc4c3)c3c(N)ncnc32)cc2cccc(C)c2c1=O [Compound 48]	< 0.1 µM		> 10	< 0.1
CNC(=O)Nc1nc2ccc(-c3nn(Cc4cc5cccc(C)c5c(=O)n4-c4ccccc4C)c4ncnc(N)c34)cc2s1 [Compound 148]	< 0.1 µM		< 0.1	< 0.1
Cc1cccnc1-n1c(Cn2nc(I)c3c(N)ncnc32)cc2cccc(C)c2c1=O [Compound 15]	< 1 µM		> 10	< 1
Cc1cccc2cc(Cn3nc(-c4cccc(O)c4)c4c(N)ncnc43)n(C3CCC3)c(=O)c12 [Compound 114]		< 10	> 10	< 0.1
CC(=O)Nc1nc2ccc(-c3nn(Cc4cc5cccc(C)c5c(=O)n4C4CCC4)c4ncnc(N)c34)cc2s1 [Compound 159]		< 1	< 0.1	< 0.1
CC(=O)Nc1nc2ccc(-c3nn(Cc4cc5cccc(C)c5c(=O)n4-c4ccccc4)c4ncnc(N)c34)cc2[nH]1 [Compound 304]	< 0.1 µM	> 10	> 10	
